From PubChem BioAssay (NCI)
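Each compound was tested at five concentrations against cells in 96-well plates for 48 hours. Definition used: TGI = concentration required for complete inhibition of growth.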

What follows are compounds tested on NCI-H226 lung (assay: inhibition of tumour cell growth, NCI panel, 48 h).
C[N+](C)([O-])CCC=C1c2ccccc2CCc2ccccc21 gave a TGI of 67.5 µM.
Work on O=C(O)c1nc(-c2ccccc2)ncc1-c1nnnn1-c1ccccc1 yielded a TGI of over 100 µM.

The compounds below were run on NCI-H23 lung (assay: inhibition of tumour cell growth, NCI panel, 48 h).
Oc1[nH]c2ccccc2c1N=Nc1ccccc1Cl gave a TGI of over 100 µM.
C=C1C[C@@H]2O[C@H]3[C@H]4[C@@H](C[C@@H](C)[C@@H](OC(C)=O)[C@H]42)[C@@H](C)CO[C@@]3(C)[C@H](OC(C)=O)C[C@H]1O was tested, and the TGI was over 100 µM.
In the case of C[N+](C)([O-])CCC=C1c2ccccc2CCc2ccccc21, the TGI is reported as over 100 µM.
O=C(O)c1nc(-c2ccccc2)ncc1-c1nnnn1-c1ccccc1 was tested, and the TGI was over 100 µM.

Each compound was assayed on NCI-H460 lung (assay: inhibition of tumour cell growth, NCI panel, 48 h).
Oc1[nH]c2ccccc2c1N=Nc1ccccc1Cl showed a TGI of over 100 µM.
Work on C=C1C[C@@H]2O[C@H]3[C@H]4[C@@H](C[C@@H](C)[C@@H](OC(C)=O)[C@H]42)[C@@H](C)CO[C@@]3(C)[C@H](OC(C)=O)C[C@H]1O yielded a TGI of over 100 µM.
With C[N+](C)([O-])CCC=C1c2ccccc2CCc2ccccc21 the TGI was over 100 µM.
With O=C(O)c1nc(-c2ccccc2)ncc1-c1nnnn1-c1ccccc1 the TGI was over 100 µM.

What follows are compounds tested on NCI-H522 lung (assay: inhibition of tumour cell growth, NCI panel, 48 h).
With Oc1[nH]c2ccccc2c1N=Nc1ccccc1Cl the TGI was over 100 µM.
C=C1C[C@@H]2O[C@H]3[C@H]4[C@@H](C[C@@H](C)[C@@H](OC(C)=O)[C@H]42)[C@@H](C)CO[C@@]3(C)[C@H](OC(C)=O)C[C@H]1O was tested, and the TGI was over 100 µM.
Compound C[N+](C)([O-])CCC=C1c2ccccc2CCc2ccccc21 has a TGI of 34.4 µM.
Work on O=C(O)c1nc(-c2ccccc2)ncc1-c1nnnn1-c1ccccc1 yielded a TGI of over 100 µM.

What follows are compounds tested on NCI/ADR-RES ovarian (assay: inhibition of tumour cell growth, NCI panel, 48 h).
Work on Oc1[nH]c2ccccc2c1N=Nc1ccccc1Cl yielded a TGI of over 100 µM.
C=C1C[C@@H]2O[C@H]3[C@H]4[C@@H](C[C@@H](C)[C@@H](OC(C)=O)[C@H]42)[C@@H](C)CO[C@@]3(C)[C@H](OC(C)=O)C[C@H]1O showed a TGI of over 100 µM.
C[N+](C)([O-])CCC=C1c2ccccc2CCc2ccccc21 was tested, and the TGI was 69.3 µM.
O=C(O)c1nc(-c2ccccc2)ncc1-c1nnnn1-c1ccccc1 was tested, and the TGI was over 100 µM.

The compounds below were run on OVCAR-3 ovarian (assay: inhibition of tumour cell growth, NCI panel, 48 h).
Oc1[nH]c2ccccc2c1N=Nc1ccccc1Cl showed a TGI of over 93.8 µM.
With C=C1C[C@@H]2O[C@H]3[C@H]4[C@@H](C[C@@H](C)[C@@H](OC(C)=O)[C@H]42)[C@@H](C)CO[C@@]3(C)[C@H](OC(C)=O)C[C@H]1O the TGI was over 100 µM.
C[N+](C)([O-])CCC=C1c2ccccc2CCc2ccccc21 showed a TGI of 58.8 µM.
With O=C(O)c1nc(-c2ccccc2)ncc1-c1nnnn1-c1ccccc1 the TGI was over 100 µM.

Each compound was assayed on OVCAR-4 ovarian (assay: inhibition of tumour cell growth, NCI panel, 48 h).
Work on Oc1[nH]c2ccccc2c1N=Nc1ccccc1Cl yielded a TGI of 14.6 µM.
C=C1C[C@@H]2O[C@H]3[C@H]4[C@@H](C[C@@H](C)[C@@H](OC(C)=O)[C@H]42)[C@@H](C)CO[C@@]3(C)[C@H](OC(C)=O)C[C@H]1O was tested, and the TGI was over 100 µM.
Compound C[N+](C)([O-])CCC=C1c2ccccc2CCc2ccccc21 has a TGI of 97 µM.

What follows are compounds tested on OVCAR-5 ovarian (assay: inhibition of tumour cell growth, NCI panel, 48 h).
With Oc1[nH]c2ccccc2c1N=Nc1ccccc1Cl the TGI was over 100 µM.
Compound C=C1C[C@@H]2O[C@H]3[C@H]4[C@@H](C[C@@H](C)[C@@H](OC(C)=O)[C@H]42)[C@@H](C)CO[C@@]3(C)[C@H](OC(C)=O)C[C@H]1O has a TGI of over 100 µM.
C[N+](C)([O-])CCC=C1c2ccccc2CCc2ccccc21 showed a TGI of over 100 µM.
In the case of O=C(O)c1nc(-c2ccccc2)ncc1-c1nnnn1-c1ccccc1, the TGI is reported as over 100 µM.

The compounds below were run on OVCAR-8 ovarian (assay: inhibition of tumour cell growth, NCI panel, 48 h).
With Oc1[nH]c2ccccc2c1N=Nc1ccccc1Cl the TGI was over 64.7 µM.
In the case of C=C1C[C@@H]2O[C@H]3[C@H]4[C@@H](C[C@@H](C)[C@@H](OC(C)=O)[C@H]42)[C@@H](C)CO[C@@]3(C)[C@H](OC(C)=O)C[C@H]1O, the TGI is reported as over 100 µM.
Work on C[N+](C)([O-])CCC=C1c2ccccc2CCc2ccccc21 yielded a TGI of 52.6 µM.
O=C(O)c1nc(-c2ccccc2)ncc1-c1nnnn1-c1ccccc1 gave a TGI of over 100 µM.

These compounds were tested on PC-3 prostate (assay: inhibition of tumour cell growth, NCI panel, 48 h).
In the case of Oc1[nH]c2ccccc2c1N=Nc1ccccc1Cl, the TGI is reported as over 100 µM.
Work on C=C1C[C@@H]2O[C@H]3[C@H]4[C@@H](C[C@@H](C)[C@@H](OC(C)=O)[C@H]42)[C@@H](C)CO[C@@]3(C)[C@H](OC(C)=O)C[C@H]1O yielded a TGI of over 100 µM.
Work on C[N+](C)([O-])CCC=C1c2ccccc2CCc2ccccc21 yielded a TGI of 86.3 µM.
O=C(O)c1nc(-c2ccccc2)ncc1-c1nnnn1-c1ccccc1 showed a TGI of over 100 µM.

Each compound was assayed on RPMI-8226 leukemia (assay: inhibition of tumour cell growth, NCI panel, 48 h).
Oc1[nH]c2ccccc2c1N=Nc1ccccc1Cl showed a TGI of over 100 µM.
Compound C[N+](C)([O-])CCC=C1c2ccccc2CCc2ccccc21 has a TGI of 34.5 µM.
With O=C(O)c1nc(-c2ccccc2)ncc1-c1nnnn1-c1ccccc1 the TGI was over 100 µM.

These compounds were tested on RXF 393 renal (assay: inhibition of tumour cell growth, NCI panel, 48 h).
In the case of Oc1[nH]c2ccccc2c1N=Nc1ccccc1Cl, the TGI is reported as over 85.2 µM.
In the case of C=C1C[C@@H]2O[C@H]3[C@H]4[C@@H](C[C@@H](C)[C@@H](OC(C)=O)[C@H]42)[C@@H](C)CO[C@@]3(C)[C@H](OC(C)=O)C[C@H]1O, the TGI is reported as over 100 µM.
C[N+](C)([O-])CCC=C1c2ccccc2CCc2ccccc21 showed a TGI of 39.8 µM.
Work on O=C(O)c1nc(-c2ccccc2)ncc1-c1nnnn1-c1ccccc1 yielded a TGI of over 100 µM.

What follows are compounds tested on SF-268 CNS (assay: inhibition of tumour cell growth, NCI panel, 48 h).
Compound Oc1[nH]c2ccccc2c1N=Nc1ccccc1Cl has a TGI of over 100 µM.
For C=C1C[C@@H]2O[C@H]3[C@H]4[C@@H](C[C@@H](C)[C@@H](OC(C)=O)[C@H]42)[C@@H](C)CO[C@@]3(C)[C@H](OC(C)=O)C[C@H]1O, the TGI was over 100 µM.
For C[N+](C)([O-])CCC=C1c2ccccc2CCc2ccccc21, the TGI was 54.6 µM.
Compound O=C(O)c1nc(-c2ccccc2)ncc1-c1nnnn1-c1ccccc1 has a TGI of over 100 µM.

What follows are compounds tested on SF-295 CNS (assay: inhibition of tumour cell growth, NCI panel, 48 h).
Oc1[nH]c2ccccc2c1N=Nc1ccccc1Cl gave a TGI of over 100 µM.
In the case of C=C1C[C@@H]2O[C@H]3[C@H]4[C@@H](C[C@@H](C)[C@@H](OC(C)=O)[C@H]42)[C@@H](C)CO[C@@]3(C)[C@H](OC(C)=O)C[C@H]1O, the TGI is reported as over 100 µM.
Work on C[N+](C)([O-])CCC=C1c2ccccc2CCc2ccccc21 yielded a TGI of 70 µM.
For O=C(O)c1nc(-c2ccccc2)ncc1-c1nnnn1-c1ccccc1, the TGI was over 100 µM.

What follows are compounds tested on SF-539 CNS (assay: inhibition of tumour cell growth, NCI panel, 48 h).
Work on Oc1[nH]c2ccccc2c1N=Nc1ccccc1Cl yielded a TGI of over 100 µM.
With C=C1C[C@@H]2O[C@H]3[C@H]4[C@@H](C[C@@H](C)[C@@H](OC(C)=O)[C@H]42)[C@@H](C)CO[C@@]3(C)[C@H](OC(C)=O)C[C@H]1O the TGI was over 100 µM.
C[N+](C)([O-])CCC=C1c2ccccc2CCc2ccccc21 was tested, and the TGI was over 100 µM.
With O=C(O)c1nc(-c2ccccc2)ncc1-c1nnnn1-c1ccccc1 the TGI was over 100 µM.

Each compound was assayed on SK-MEL-2 melanoma (assay: inhibition of tumour cell growth, NCI panel, 48 h).
In the case of Oc1[nH]c2ccccc2c1N=Nc1ccccc1Cl, the TGI is reported as over 100 µM.
